Literature values as cited in article PMC3068529 (Journal of the American Chemical Society, 2011).

Biological target: T1, TLR3 (Homo sapiens, UniProt O15455)
T1 sequence (O15455 24-904): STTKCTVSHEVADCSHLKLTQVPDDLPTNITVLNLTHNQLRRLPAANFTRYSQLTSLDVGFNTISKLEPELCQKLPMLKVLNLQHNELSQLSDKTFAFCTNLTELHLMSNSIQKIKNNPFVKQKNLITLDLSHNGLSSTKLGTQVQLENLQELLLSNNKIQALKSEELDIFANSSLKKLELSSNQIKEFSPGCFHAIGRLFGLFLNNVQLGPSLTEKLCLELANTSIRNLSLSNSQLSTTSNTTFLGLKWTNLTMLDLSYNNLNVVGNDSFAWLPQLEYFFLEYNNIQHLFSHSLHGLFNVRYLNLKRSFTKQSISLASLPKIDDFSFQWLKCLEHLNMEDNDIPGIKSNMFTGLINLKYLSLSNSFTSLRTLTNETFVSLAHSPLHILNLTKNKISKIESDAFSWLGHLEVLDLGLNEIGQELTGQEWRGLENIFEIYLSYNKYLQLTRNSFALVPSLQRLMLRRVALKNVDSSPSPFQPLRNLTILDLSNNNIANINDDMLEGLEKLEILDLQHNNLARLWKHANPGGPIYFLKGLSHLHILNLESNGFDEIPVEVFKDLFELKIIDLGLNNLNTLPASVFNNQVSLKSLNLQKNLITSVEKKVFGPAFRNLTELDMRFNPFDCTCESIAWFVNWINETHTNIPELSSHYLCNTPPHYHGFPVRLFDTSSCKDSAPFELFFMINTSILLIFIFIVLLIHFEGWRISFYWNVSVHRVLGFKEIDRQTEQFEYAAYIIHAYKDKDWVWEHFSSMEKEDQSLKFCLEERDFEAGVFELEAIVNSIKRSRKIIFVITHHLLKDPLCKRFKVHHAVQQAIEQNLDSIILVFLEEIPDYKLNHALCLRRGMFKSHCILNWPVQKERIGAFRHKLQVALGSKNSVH
Conditions: dsRNA binding to TLR3

Kd: 19 ± 0.9 nM
Substance: polyriboinosinic:polyribocytidylic acid [dsRNA]
